Assay: Antioxydation test (linoleic acid, thiocyanate method)
Settings: 5 mg specimen
Method: In a 50 ml test tube with a screw cap, the following test solution was prepared. […]
This test solution was allowed to stand in a thermostatic bath at 50° C., while light was shut out. […]
12.125 ml of 75% ethanol and 0.125 ml of 30% ammonium thiocyanate were added to 0.125 ml of the test solution, and the solution was stirred and then allowed to stand for 3 minutes. Afterward, 0.125 ml of a 3.5% aqueous HCl solution including 0.02 N ferrous chloride was added thereto, and the solution was stirred and then allowed to stand for 3 minutes. Next, absorbance was measured at a wavelength of 500 nm. A cell length was 10 mm, and a control was prepared by replacing the test solution with water.

For Vitamin E, the “Absorbance at 500 nm After 3 days” value (linoleic acid test solution at 50° C., light shut out, water 0.050) was 0.026, the “Absorbance at 500 nm After 5 days” value (linoleic acid test solution at 50° C., light shut out, water 0.103) was 0.047 and the “Absorbance at 500 nm After 7 days” value (linoleic acid test solution at 50° C., light shut out, water 0.262) was 0.070. The “Absorbance at 500 nm After 0 day” value (linoleic acid test solution, before placing at 50° C., water 0.014) was 0.015.

From US5538731A, “Cosmetic” (Mikimoto Pharmaceutical Co., Ltd., priority 1992, dated 1996)
